In PMC6472966 (Analytical and bioanalytical chemistry, 2019):

Key:
[1] = at high concentrations; cited from earlier work
[2] = bulk, off-chip studies; cited from earlier work
[3] = cited from earlier work
HeLa cells = type: cell-based; details: 10 μM peptide, 60 min at 37°C, hierarchical cluster analysis, Fig. 4a

Substance	cytotoxicity [1]	permeability efficiency on average compared to OWRWR and RWRWR [2]	stability under intracellular conditions compared to TAT and ARG [3]	normalized fluorescence of the largest cluster (subpopulation) (HeLa cells)
FAM-YGRKKRRQRRR [TAT]	high cytotoxicity	higher permeability efficiencies	–	–
Ac-OWVRVpGO(FAM)WIRQ-NH2 [OWRWR]	–	–	enhanced stability	–
FAM-RRRRRRRRR [ARG]	–	higher permeability efficiencies	–	~ 1200
